Test results as given in paper PMC13183915, “A platinum butterfly effect: small changes turn an anticancer drug into a non-toxic metalloantibiotic with in vivo efficacy” (npj Antimicrobials and Resistance, 2026).

How the values were obtained:
[1] = tested on: GFP-MinD expression (B. subtilis TB35); test: Translation inhibition assay (inducible GFP-MinD expression); assay type: cell-based, Bacillus subtilis; settings: 3.125 µM Pt1, 25 µM Pt8; 60 min
Description: B. subtilis strain TB35 (Pxyl-minD-gfp) was grown in LB without inducer. After reaching an OD600 of 0.3, antibiotics and inducer (0.1% xylose) were added consecutively. Samples were withdrawn for microscopy after 60 min of treatment, spotted on glass slides covered with 1% agarose films, and imaged without delay.
Figure S11: MinD translation induction assay. TB35 (Pxyl-minD-gfp) was grown without xylose, thus not expressing GFP -MinD. […]
chloramphenicol (CHL). Images were taken after 60 min of induction/treatment. Scale bar 2 […]
(§1) (1 picture or pasted object on this page, not shown here)

B. subtilis 168CA = test: Propidium iodide pore assay; assay type: cell-based, Bacillus subtilis; settings: 3.125 µM Pt1, 25 µM Pt8; 30 and 60 min
Description: Propidium iodide staining was performed as described previously. B. subtilis 168CA was grown to an OD600 of 0.3 prior to splitting of the parent culture and treatment with the different antibiotics. After 15 and 45 min, samples were stained with 13.3 µg/mL propidium iodide for 15 min (total treatment times 30 and 60 min), and washed 3 times with phosphate-buffered saline (PBS). Fluorescence signals were recorded at an excitation wavelength of 535–15 nm and an emission wavelength of 617–20 nm in a BMG Clariostar Plus plate reader.

E. coli ATCC 25922 = test: Broth microdilution MIC, E. coli ATCC 25922; assay type: cell-based
Description: (§2) The data is given in supporting information (Table S5). Before starting the experiment, a single colony was picked from MHA plate, inoculated in MHBII and incubated overnight at 37 °C with shaking for 18–24 h to get the starter culture. Antibiotic susceptibility testing was conducted according to the CLSI (Clinical & Laboratory Standards Institute) guidelines using the broth microdilution assay. 10 mg/mL stock solutions of test compounds were prepared in DMSO. Bacterial cultures were inoculated in MHBII and optical density (OD) was measured at 600 nm, followed by dilution to achieve ~10^6 CFU/mL. The compounds were tested from 64 to 0.5 mg/L in two-fold serial diluted fashion with 2.5 μL of each concentration added to well of a 96-well round bottom microtiter plate. Later, 97.5 μL of bacterial suspension was added to each well containing either test compound or appropriate controls. […] The MIC is defined as the lowest concentration of the compound at which there is absence of visible growth. For each test compound, MIC determinations were carried out independently three times using duplicate samples.

[2] = set-up: method as in PMID 34018686; settings: cited from earlier work
S. aureus ATCC 29213 [3] = test: Post antibiotic effect (PAE); assay type: cell-based; settings: for Time for 1 log10 increase in bacterial cfu count: 1 h exposure
Description: Post antibiotic effect (PAE) was determined as follows. […] Following incubation, cultures were centrifuged and washed twice with pre-warmed MHBII to remove any traces of antibiotics. Finally, cells were resuspended in drug-free MHBII and incubated further at 37 °C. Samples were taken every 1 h, serially diluted, and plated on tryptic soy agar (TSA) for enumeration of CFU. […] CFU observed immediately after the removal of the drug, and C in a similarly treated drug-free control.

P. aeruginosa ATCC 27853 = test: Broth microdilution MIC, P. aeruginosa ATCC 27853; assay type: cell-based, Pseudomonas aeruginosa
Description: as §2

S. aureus ATCC 29213 [4] = test: Murine superficial skin infection model; assay type: in vivo; settings: topical 2% cream, twice daily for 4 days, Swiss mice
Description: The in vivo efficacy of Pt1 was determined in a superficial skin infection model. Briefly, male Swiss mice, 4–6 weeks old, weighing ∼22–25 g, were used throughout the study. Mice were caged alone in an individually vented cage (IVC) to check cross-contamination and to maintain aseptic conditions throughout the experiment. Ketamine and xylazine were prepared in distilled water, 40 mg/kg and 8 mg/kg of body weight, respectively, and injected intraperitoneally (IP) as a mixture of 100 μL in each mouse for anaesthesia. Then, we proceeded with the removal of fur by applying depilatory cream. The area was cleaned with sterile distilled water. Approximately 2 cm^2 of skin area was scratched until it became visibly reddened and glistening without any bleeding. For bacterial infection, a 10 μL droplet containing 10^7 CFU/mL of S. aureus ATCC 29213 was applied to the reddened area of skin. To confirm the infection, post 4 h, untreated mice were sacrificed, skin homogenized, and various dilutions of the treatment groups (6 mice per group) were plated on TSA plates. […] Henceforth, the drug regimen was comprised of twice daily application (in the morning and the evening, with an 8 h interval) for 4 days. Control mice were regularly treated with 25–30 mg each of 2% fusidic acid (LEO Pharma, Ballerup, Denmark), 2% infuzide, and base (vehicle). […]

VRSA VRS 4 = test: Broth microdilution MIC, VRSA VRS 4; assay type: cell-based, S. aureus; settings: VRSA VRS 4
Description: as §2

[5] = tested on: RecA-GFP (B. subtilis UG10); test: Localization of RecA-GFP (DNA damage reporter); assay type: cell-based, Bacillus subtilis; settings: Pt1 3.125 µM, Pt8 25 µM, CisPt 100 µM; strongest after 10 min
Description: To confirm whether the compounds induce DNA damage in bacterial cells, the localization of RecA was assessed. RecA is part of the bacterial SOS response to DNA damage. It is a DNA-associated protein that recognizes single-stranded DNA, which occurs as a consequence of strand breaks. If strand breaks are present, RecA accumulates at the damaged sites, appearing as foci or elongated structures. Since the RecA response is strongest shortly after stress induction, we additionally examined a 10 min timepoint in this assay.
(§3) B. subtilis strains were grown in LB containing appropriate inducer concentrations as specified in Table S10. After reaching an OD600 of 0.3, cultures were split and treated with antibiotics. Samples were withdrawn after 30 and 60 min of treatment, spotted on glass slides covered with 1% agarose films, and immediately imaged.

[6] = tested on: RpoC-GFP (B. subtilis 1048); test: Localization of RpoC-GFP (transcription reporter); assay type: cell-based, Bacillus subtilis; settings: 3.12 µM Pt1, 25 µM Pt8; 30 and 60 min
Description: as §3
Figure S9: Localization of RpoC-GFP (B. subtilis 1048). Cultures were treated with 3.12 µM
as §1

## C1=C\CC/C=C\CC/1.[Cl][Pt][Cl] [Pt1]
[1]
  GFP-MinD expression after xylose induction: No differences in GFP-MinD expression were observed
B. subtilis 168CA
  propidium iodide (PI) uptake: Neither Pt1 nor Pt8 showed increased PI uptake
E. coli ATCC 25922
  MIC: > 64 µg/mL
[2]
  antibacterial activity in human serum: lost its antibacterial activity completely
S. aureus ATCC 29213 [3]; 1x MIC
  PAE: ~ 5.5 h
  Time for 1 log10 increase in bacterial cfu count: ~ 8 h
S. aureus ATCC 29213 [3]; 5x MIC
  PAE: ~ 5.5 h
  Time for 1 log10 increase in bacterial cfu count: ~ 8 h
S. aureus ATCC 29213 [3]; 10x MIC
  PAE: ~ 5.5 h
  Time for 1 log10 increase in bacterial cfu count: ~ 8 h
P. aeruginosa ATCC 27853
  MIC: > 64 µg/mL
S. aureus ATCC 29213 [4]
  reduction in bacterial load compared to vehicle-treated group: ~ 1.9 log10 CFU/g
VRSA VRS 4
  MIC: 0.67 to 1.34 µM
[5]
  RecA accumulation on nucleoids: clear RecA accumulations
[6]
  localization of RpoC: Neither protein showed a distinct phenotype
